Reference: patent US20230138395A1, “PHARMACEUTICAL COMPOSITIONS OF A THERAPEUTIC POLYENE MACROLIDE AND METHODS OF THEIR USE” (priority 2020, published 2023)
Values after ≈ are worked out from the molar mass of the structure shown. Values joined by “and” are separate entries in the source; they are usually repeats but may differ in a detail not shown here. Equal values may be shown once. Read-outs that look alike come from different tables or passages of the source.

Tests used:
Penicillium strains = assay: MIC testing (CLSI M38-A2); assay type: cell-based, Penicillium spp.; settings: for MIC50 / MIC90: Penicillium; for MIC50: inhibits 50% of strains; for MIC90: inhibits 90% of strains
[1] = system: individual Aspergillus spp. (Table 12, species not named); assay: MFC determination, Table 12; assay type: cell-based; settings: Aspergillus sp. of Table 12; for MFC50: kills 50% of strains; for MFC90: kills 90% of strains
Cr. neoformans strains = assay: MIC testing (CLSI M27-A3, YNB, 72 h); assay type: cell-based, Cryptococcus neoformans; settings: for MIC Range: Cr. neoformans strains, 72 h, in µg/mL; for MIC50 / MIC90: Cr. neoformans; for MIC50: inhibits 50% of strains; for MIC90: inhibits 90% of strains
A. fumigatus AF91 = assay: In vitro activity (MIC) against the infecting strain, Example 17; assay type: cell-based, Aspergillus fumigatus; settings: Aspergillus fumigatus
Procedure: Minimum Inhibitory Concentration: MIC testing was performed according to the Clinical and Laboratory Standards Institute (CLSI) M27-A3 and M38-A2 standards for the susceptibility testing of yeasts and filamentous fungi, respectively (Cryptococcus isolates were incubated for 72 h). For yeast strains, the incubation temperature and time were 35° C. and 24-48 h, respectively, and the inoculum size was 0.5-2.5×10^3 CFU/ml. For filamentous strains, the inoculum size was 0.4-5×10^4 CFU/ml, and the incubation time was strain and drug specific. RPMI 1640 was the test medium throughout, with the exception of the use of YNB for Cryptococcus. Inhibition endpoints for compound 1A were recorded at 50% and 100% after both 24 h and 48 h incubation; caspofungin results against Aspergillus strains were read as minimum effective concentrations (MEC), the lowest concentration that leads to small, rounded, compact growth as compared to the confluent growth of the control.

C. tropicalis [2] = assay: MFC determination; assay type: cell-based; settings: for MFC50 / MFC90: C. tropicalis; for MFC50: kills 50% of strains; for MFC90: kills 90% of strains; for MFC Range: C. tropicalis strains, in µg/mL
[3] = system: all Aspergillus strains tested; assay: MIC testing (CLSI M38-A2), summary; assay type: cell-based; settings: caspofungin read as MEC; for MIC Range: in µg/mL; for MIC50: inhibits 50% of strains; for MIC90: inhibits 90% of strains
C. parapsilosis = assay: MFC determination; assay type: cell-based; settings: for MFC50 / MFC90: C. parapsilosis; for MFC50: kills 50% of strains; for MFC90: kills 90% of strains; for MFC: individual C. parapsilosis strain with elevated MICs to non-polyene comparators (Table 22); for MFC Range: C. parapsilosis strains
C. tropicalis [4] = assay: MIC testing (CLSI M27-A3); assay type: cell-based; settings: for MIC Range: C. tropicalis strains, in µg/mL; for MIC50 / MIC90: C. tropicalis; for MIC50: inhibits 50% of strains; for MIC90: inhibits 90% of strains
all Candida strains [5] = assay: MFC determination, summary; assay type: cell-based; settings: for MFC50: kills 50% of strains; for MFC90: kills 90% of strains
[6] = system: individual Aspergillus spp. (Table 14, species not named); assay: MFC determination, Table 14; assay type: cell-based; settings: Aspergillus sp. of Table 14; for MFC50: kills 50% of strains; for MFC90: kills 90% of strains
all Candida strains [7] = assay: MIC testing (CLSI M27-A3), summary; assay type: cell-based; settings: for MIC Range: in µg/mL; for MIC50: inhibits 50% of strains; for MIC90: inhibits 90% of strains
[8] = system: individual Aspergillus spp. (Table 15, species not named); assay: MFC determination, Table 15; assay type: cell-based; settings: Aspergillus sp. of Table 15; for MFC50: kills 50% of strains; for MFC90: kills 90% of strains
[9] = Solubility of Compound 1A in lipids, oils and acrylate monomers; assay type: physicochemical
Text: In General, the Constituents of a PACA Particle Contains: • Aqueous phase: Brij L35, Kolliphor HS15 and HCl to adjust pH • Oil phase: acrylate monomer (ethyl hexylcyanoacrylate, ethyl butylcyanoacrylate, 1-heptyl cyanoacrylate, and 2-phenylethyl cyanoacrylate/butyl cyanoacrylate), Miglyol, vanillin, Compound 1A.
Lipid-based particles were investigated as a vehicle for Compound 1A.

[10] = system: Candida albicans ATCC 10231; assay: MIC50 growth inhibition assay of compositions (OD600), Example 12; assay type: cell-based; settings: Candida albicans, concentration giving 50% growth inhibition, read-out: MIC50
Procedure: Efficacy of the compositions was determined using Minimum Inhibitory Concentration assays, and the concentration of active compound giving 50% growth inhibition of the indicator organism was reported (MIC50). The assay was performed in well plates with two (Müller-Hinton medium) or three parallel (M19-medium) cell cultures for each condition.
Cell Culture Medium: Müller-Hinton and M19 without NaCl.
Indicator Organism: Candida albicans ATCC 10231
Stock Solutions of the Active Compounds and Control: • Amphotericin B (USP): vacuum dried powder was dissolved in DMSO to 2.5 mg/mL giving a final concentration after inoculation of 2.5 μg/mL in the well with the highest concentration. • compound 1A (custom made): powder was dissolved in DMSO to 2.5 mg/mL giving a final concentration after inoculation of 2.5 μg/ml compound 1A in the well with the highest concentration. It is assumed that the batch is 70% pure. • Example 3 composition: the formulation was a suspension with 18 mg/mL nanoparticles. The suspension was diluted in a medium and C. albicans inoculum to a final concentration of 5 μg/mL of compound 1A and 130 μg/mL of […]. From this solution 10 dilutions were prepared giving 0.009 μg/ml compound 1A in the lowest concentration. • Empty poly(ethylbutyl cyanoacrylate) particles: empty poly(ethylbutyl cyanoacrylate) particles were used as a reference. The empty poly(ethylbutyl cyanoacrylate) was produced in the same manner as those in Examples 2 and 3, with the exception that they were prepared at pH 1, with vanillin concentration of 10% (w/w), and. The particles were diluted in the same manner as Example 3. The highest poly(ethylbutyl cyanoacrylate) concentration tested was 130 μg/mL.
Growth measurements were performed at OD600.

Paecilomyces strains = assay: MFC determination; assay type: cell-based, Paecilomyces spp.; settings: Paecilomyces strains (5)

Row | Compound | MIC50 (Penicillium strains) [µg/mL] | MIC90 (Penicillium strains) [µg/mL] | MFC50 [1] [µg/mL] | MFC90 [1] [µg/mL] | MIC Range (Cr. neoformans strains) | MIC50 (Cr. neoformans strains) [µg/mL] | MIC90 (Cr. neoformans strains) [µg/mL] | MFC50 (C. tropicalis [2]) [µg/mL] | MFC90 (C. tropicalis [2]) [µg/mL] | MIC50 [3] [µg/mL] | MIC90 [3] [µg/mL] | MFC50 (C. parapsilosis) [µg/mL] | MFC90 (C. parapsilosis) [µg/mL] | MIC Range (C. tropicalis [4]) | MIC50 (C. tropicalis [4]) [µg/mL] | MIC90 (C. tropicalis [4]) [µg/mL] | MFC50 (all Candida strains [5]) [µg/mL] | MFC90 (all Candida strains [5]) [µg/mL] | MFC50 [6] [µg/mL] | MFC90 [6] [µg/mL] | other results
1 | CC[C@H](C)C[C@H](C)CCCCCCCCC(=O)N[C@H]1C[C@@H](O)[C@@H](NCCN)NC(=O)[C@@H]2[C@@H](O)CCN2C(=O)[C@H]([C@H](O)CCN)NC(=O)[C@H]([C@H](O)[C@@H](O)c2ccc(O)cc2)NC(=O)[C@@H]2C[C@@H](O)CN2C(=O)[C@H]([C@@H](C)O)NC1=O [Caspofungin, caspofungin] | 4 (≈ 3.66 µM) | 32 (≈ 29.3 µM) | > 32 | > 32 | 1-16 | 16 (≈ 14.6 µM) | 16 (≈ 14.6 µM) | 32 (≈ 29.3 µM) | > 32 | 0.25 (≈ 0.229 µM) | 0.5 (≈ 0.457 µM) | > 32 | > 32 | 0.06-2 | 0.25 (≈ 0.229 µM) | 0.5 (≈ 0.457 µM) | 16 (≈ 14.6 µM) | > 32 | > 32 | > 32 | MIC (A. fumigatus AF91; minimum effective concentration, read-out: MIC read as MEC): 0.25 µg/mL (≈ 0.229 µM); MIC Range [3]: 0.125-8; MFC (C. parapsilosis; in µg/mL): >32; MIC Range (all Candida strains [7]): 0.06-16; MIC50 (all Candida strains [7]): 0.5 µg/mL (≈ 0.457 µM); MIC90 (all Candida strains [7]): 2 µg/mL (≈ 1.83 µM); MFC50 [8]: > 32 µg/mL; MFC90 [8]: > 32 µg/mL
2 | C[C@@H]1[C@H](O)[C@@H](C)/C=C/C=C/C=C/C=C/C=C/C=C/C=C/[C@H](O[C@@H]2O[C@H](C)[C@@H](O)[C@H](N)[C@@H]2O)C[C@@H]2O[C@](O)(C[C@@H](O)[C@H](O)CC[C@@H](O)C[C@@H](O)C[C@@H](O)CC(=O)O[C@H]1C)C[C@H](O)[C@H]2C [Compound 1A] | 2 (≈ 2.24 µM) | 2 (≈ 2.24 µM) | 4 (≈ 4.47 µM) | > 4 | 0.5-2 | 1 (≈ 1.12 µM) | 1 (≈ 1.12 µM) | 1 (≈ 1.12 µM) | 8 (≈ 8.95 µM) | 2 (≈ 2.24 µM) | 2 (≈ 2.24 µM) | 0.5 (≈ 0.559 µM) | 2 (≈ 2.24 µM) | 0.5-8 | 1 (≈ 1.12 µM) | 8 (≈ 8.95 µM) | 1 (≈ 1.12 µM) | 2 (≈ 2.24 µM) | 2 (≈ 2.24 µM) | 4 (≈ 4.47 µM) | MIC Range (Penicillium strains; Penicillium strains, in µg/mL): 0.5-2; solubility ([9]; in 1-heptyl cyanoacrylate and 2-phenylethyl cyanoacrylate/butyl cyanoacrylate): unable to dissolve; solubility ([9]; in the tested oils and lipids listed): None of the tested oils or lipids dissolved Compound 1A well; solubility ([9]; in trans-cinnamaldehyde): somewhat soluble; MIC (A. fumigatus AF91; read-out: MIC): 2 µg/mL (≈ 2.24 µM); MFC Range (C. tropicalis [2]): 0.5-16; MIC Range [3]: 0.5-4; MFC Range (C. parapsilosis; in µg/mL): 0.25-2; MFC (C. parapsilosis): 0.5 (2×) and 1; MIC50 ([10]; ATCC10231, M19 medium): 0.18 µg/mL (≈ 0.201 µM); MIC50 ([10]; ATCC10231, Müller-Hinton medium): 0.06 µg/mL (≈ 0.0671 µM); MFC Range (all Candida strains [5]; in µg/mL): 0.125-16; MIC Range (all Candida strains [7]): 0.125-8; MIC50 (all Candida strains [7]): 1 µg/mL (≈ 1.12 µM); MIC90 (all Candida strains [7]): 2 µg/mL (≈ 2.24 µM); MFC50 [8]: > 4 µg/mL; MFC90 [8]: > 4 µg/mL
3 | OC(Cn1cncn1)(Cn1cncn1)c1ccc(F)cc1F [Fluconazole, fluconazole] | > 64 | > 64 | > 64 | > 64 | <0.06-16 | 2 (≈ 6.53 µM) | 8 (≈ 26.1 µM) | > 64 | > 64 | > 64 | > 64 | > 64 | > 64 | 0.25-2 | 0.25 (≈ 0.816 µM) | 0.5 (≈ 1.63 µM) | > 32 | > 32 | > 64 | > 64 | MFC Range [1]: > 64 µg/mL; MFC Range (C. tropicalis [2]): >64; MFC Range (C. parapsilosis; in µg/mL): >64; MFC (C. parapsilosis; in µg/mL): >64; MFC Range (Paecilomyces strains): > 64 µg/mL; MFC Range [6]: > 64 µg/mL; MIC50 (all Candida strains [7]): 0.5 µg/mL (≈ 1.63 µM); MIC90 (all Candida strains [7]): > 32 µg/mL; MFC Range [8]: > 64 µg/mL; MFC50 [8]: > 64 µg/mL; MFC90 [8]: > 64 µg/mL
